Laboratory results: patent US20180338980A1, “AROMATIC SULFONAMIDE DERIVATIVES” (BAYER PHARMA AKTIENGESELLSCHAFT, priority 2015, published 2018)

Assays:
Assay type in all cases: cell-based
[1] = biological target: T1, P2X4 (Homo sapiens, UniProt Q99571); experiment: Assay A: human P2X4 receptor cell line, FLIPR calcium assay (Fluo-8, agonist Bz-ATP at EC80); set-up: host or cells: HEK 293 (recombinant, constitutively expressing; with mitochondrial photina in Assay B); details: HEK human P2X4 cells, Fluo-8 FLIPR; for Emax: percentage of maximal inhibition, read-out: human P2X4 Assay A avg Efficacy; for IC50: Bz-ATP at EC80, average values
T1 sequence (Q99571 1-388): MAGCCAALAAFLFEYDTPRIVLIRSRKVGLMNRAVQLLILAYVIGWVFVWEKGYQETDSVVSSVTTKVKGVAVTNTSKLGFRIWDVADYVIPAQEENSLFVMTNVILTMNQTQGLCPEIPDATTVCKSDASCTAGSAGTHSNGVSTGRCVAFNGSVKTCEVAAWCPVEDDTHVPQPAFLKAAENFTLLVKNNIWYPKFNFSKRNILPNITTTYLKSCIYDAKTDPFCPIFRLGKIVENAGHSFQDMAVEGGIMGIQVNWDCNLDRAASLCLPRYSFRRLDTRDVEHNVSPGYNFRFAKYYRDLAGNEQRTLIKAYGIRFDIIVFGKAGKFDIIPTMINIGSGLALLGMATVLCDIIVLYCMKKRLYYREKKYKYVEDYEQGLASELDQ
How it was run: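 Antagonism read as inhibition of the calcium response to EC80 Bz-ATP, by peak-over-basal Fluo-8 fluorescence over 120 s, normalized to DMSO wells. Human P2X4-HEK cells, dye-loaded 30 min in probenecid-containing HBSS/HEPES pH 7.4, received compound 30 min beforehand at room temperature, 0.5% DMSO final. Triplicates fitted for IC50, maximal inhibition and Hill slope.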

[2] = biological target: T2, mouse P2X4 receptors (Mus musculus, UniProt Q9JJX6); experiment: Assay B: mouse P2X4 receptor cell line, Fluo8 fluorescence FLIPR (agonist Bz-ATP at EC50); details: HEK mouse P2X4 cell line, agonist Bz-ATP at EC50, average
T2 construct: host or cells: HEK 293 (recombinant, constitutively expressing)
T2 sequence (Q9JJX6 1-388): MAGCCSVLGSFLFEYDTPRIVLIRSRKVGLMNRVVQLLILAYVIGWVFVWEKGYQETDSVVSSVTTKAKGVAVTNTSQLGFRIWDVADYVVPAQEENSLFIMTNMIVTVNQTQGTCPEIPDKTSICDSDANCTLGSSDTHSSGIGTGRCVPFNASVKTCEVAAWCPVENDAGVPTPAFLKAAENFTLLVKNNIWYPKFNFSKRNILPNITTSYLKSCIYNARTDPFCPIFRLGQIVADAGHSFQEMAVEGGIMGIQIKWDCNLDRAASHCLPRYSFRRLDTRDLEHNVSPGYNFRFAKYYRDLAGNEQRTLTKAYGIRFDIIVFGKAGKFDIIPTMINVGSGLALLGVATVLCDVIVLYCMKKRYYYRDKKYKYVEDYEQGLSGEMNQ
Protocol: The identification of agonists and antagonists of the P2X4 receptor from humans and […] also the quantification of the activity of the compounds of the invention was performed by use of recombinant cell lines. […] The test cell lines constitutively express the mouse or human P2X4 receptors. Stimulation of the receptors with an agonist leads to a conformational change of P2X4 and influx of extracellular calcium ions through the ion channel. The cytoplasmatic calcium transient is detected via the calcium sensitive dye Fluo8 for the mouse P2×4 cell line or in case of the human P2×4 cell line a stably expressed calcium-sensitive photoprotein, mitochondrial photina, which, after reconstitution with the cofactor coelenterazine, emits light in dependence of calcium binding [Bovolenta S, Foti M, Lohmer S, Corazza S., J Biomol Screen. […] The strength of Fluo8 fluorescence signal or photina luminescence signal corresponds to the level of receptor activation. An inhibitor would decrease the signal depending on its potency and concentration.
On the day of the assay medium is exchanged by Fluo8 containing buffer for 30 minutes. In the fluorescence reader (FLIPR) test substances in various concentrations are added for 10 minutes. After baseline measurement the agonist Bz-ATP at EC50 concentration is applied and fluorescence is measured immediately.

[3] = biological target: T1, P2X4; experiment: Assay B: human P2X4 receptor cell line, mitochondrial photina luminescence (agonist Bz-ATP at EC50); set-up: host or cells: HEK 293 (recombinant, constitutively expressing; with mitochondrial photina in Assay B); details: HEK human P2X4 cell line, photina luminescence, agonist Bz-ATP at EC50, average; for Emax: read-out: human P2X4 Assay B avg Efficacy
How it was run: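 Bz-ATP at its EC50 activates human P2X4 stably expressed in a cell line that also carries the calcium-sensitive photoprotein mitochondrial photina (coelenterazine cofactor). Light emitted on calcium influx is measured straight away in a luminometer. Reduced luminescence indicates antagonism.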

Row | SMILES | Emax [1] [%] | IC50 [2] [µM] | mouse P2X4 Assay B avg Efficacy [2] [%] | Emax [3] [%] | IC50 [1] [µM] | IC50 [3] [µM]
1 | NS(=O)(=O)c1cc(NC(=O)Cc2ccccc2Cl)ccc1Oc1ccccc1 [Example 014, 2-(2-Chlorophenyl)-N-(4-phenoxy-3-sulfamoylphenyl)acetamide] | 85 | > 16 | 25 | 70 |  | 
2 | NS(=O)(=O)c1cc(NC(=O)Cc2ccccc2Cl)ccc1OCc1ccccc1F [Example 137, 2-(2-Chlorophenyl)-N-{4-[(2-fluorobenzyl)oxy]-3-sulfamoylphenyl}acetamide] | 88 | 1.75 | 66 | 98 | 0.035 | 0.033
3 | NS(=O)(=O)c1cc(NC(=O)Cc2c(Cl)cccc2Cl)ccc1Oc1cccc(Cl)c1 [Example 104, N-[4-(3-Chlorophenoxy)-3-sulfamoylphenyl]-2-(2,6-dichlorophenyl)acetamide] | 78 | 0.604 | 59 | 60 |  | 
4 | NS(=O)(=O)c1cc(NC(=O)Cc2cccc(F)c2Cl)ccc1Oc1cccc(Cl)c1 [Example 098, 2-(2-Chloro-3-fluorophenyl)-N-[4-(3-chlorophenoxy)-3-sulfamoylphenyl]acetamide] | 95 | 0.387 | 69 | 57 | 0.007 | 0.025
5 | NS(=O)(=O)c1cc(NC(=O)Cc2ccccc2Cl)ccc1Oc1ccc(F)cc1 [Example 012, 2-(2-chlorophenyl)-N-[4-(4-fluorophenoxy)-3-sulfamoylphenyl]acetamide] | 70 | 1.24 | 44 | 56 | 0.02 | 0.043
6 | NS(=O)(=O)c1cc(NC(=O)Cc2ccccc2Cl)ccc1Oc1ccc(-n2ccnc2)cc1 [Example 042, 2-(2-Chlorophenyl)-N-{4-[4-(1H-imidazol-1-yl)phenoxy]-3-sulfamoylphenyl}acetamide] | 89 | > 50 | 54 | 90 | 0.241 | 0.46
7 | NS(=O)(=O)c1cc(NC(=O)Cc2cc(F)ccc2Cl)ccc1Oc1cccc(Cl)c1 [Example 099, 2-(2-Chloro-5-fluorophenyl)-N-[4-(3-chlorophenoxy)-3-sulfamoylphenyl]acetamide] | 77 | 0.808 | 67 | 55 | 0.168 | 0.022
8 | N#Cc1ccc(COc2ccc(NC(=O)Cc3ccccc3Cl)cc2S(N)(=O)=O)cc1 [Example 138, 2-(2-Chlorophenyl)-N-{4-[(4-cyanobenzyl)oxy]-3-sulfamoylphenyl}acetamide] | 67 | 9.39 | 41 | 56 | 0.004 | 0.027
9 | NC(=O)c1cccc(Oc2ccc(NC(=O)Cc3ccccc3Cl)cc2S(N)(=O)=O)c1 [Example 017, 3-(4-{[(2-Chlorophenyl)acetyl]amino}-2-sulfamoylphenoxy)benzamide] | 86 | 0.805 | 44 | 65 | 0.061 | 0.055
10 | NS(=O)(=O)c1cc(NC(=O)Cc2ccccc2Cl)ccc1OCc1cccc(Cl)c1 [Example 139, N-{4-[(3-Chlorobenzyl)oxy]-3-sulfamoylphenyl}-2-(2-chlorophenyl)acetamide] | 82 | 0.612 | 52 | 63 | 0.026 | 0.043
11 | NS(=O)(=O)c1cc(NC(=O)Cc2ccccc2Cl)ccc1Oc1ccccn1 [Example 013, 2-(2-Chlorophenyl)-N-[4-(pyridin-2-yloxy)-3-sulfamoylphenyl]acetamide] | 93 | > 16 | 31 | 71 |  | 

More lines, now with the values ahead:

Row | Emax [1] [%] | IC50 [2] [µM] | mouse P2X4 Assay B avg Efficacy [2] [%] | Emax [3] [%] | IC50 [1] [µM] | IC50 [3] [µM] | SMILES
12 | 47 | > 50 | 35 | 89 | > 25 | 0.431 | NS(=O)(=O)c1cc(NC(=O)Cc2ccc(C(F)(F)F)cc2)ccc1OCc1ccccn1 [Example 152, N-[4-(Pyridin-2-ylmethoxy)-3-sulfamoylphenyl]-2-[4-(trifluoromethyl)phenyl]acetamide]
13 | 72 | 0.947 | 60 | 83 | 0.121 | 0.278 | CN(C)C(=O)c1cccc(CC(=O)Nc2ccc(Oc3cccc(Cl)c3)c(S(N)(=O)=O)c2)c1 [Example 202, 3-(2-{[4-(3-Chlorophenoxy)-3-sulfamoylphenyl]amino}-2-oxoethyl)-N,N-dimethylbenzamide]
14 | 60 | ≥ 16 | 20 | 77 | 0.473 | 0.1 | NS(=O)(=O)c1cc(NC(=O)Cc2ccccc2Cl)ccc1OC1CCOCC1 [Example 207, 2-(2-Chlorophenyl)-N-[3-sulfamoyl-4-(tetrahydro-2H-pyran-4-yloxy)phenyl]acetamide]
15 | 96 | 1.13 | 66 | 69 |  |  | NS(=O)(=O)c1cc(NC(=O)Cc2ccccc2Cl)ccc1OCc1ccccc1 [Example 141, N-[4-(Benzyloxy)-3-sulfamoylphenyl]-2-(2-chlorophenyl)acetamide]
16 | 68 | 3.5 | 65 | 61 |  |  | NS(=O)(=O)c1cc(NC(=O)Cc2cc(F)ccc2Cl)ccc1OCC1CCOCC1 [Example 163, 2-(2-Chloro-5-fluorophenyl)-N-[3-sulfamoyl-4-(tetrahydro-2H-pyran-4-ylmethoxy)phenyl]acetamide]
17 | 81 | > 50 | 25 | 58 | 0.012 | 0.047 | NS(=O)(=O)c1cc(NC(=O)Cc2ccccc2Cl)ccc1OCCc1cccc(Cl)c1 [Example 156, 2-(2-Chlorophenyl)-N-{4-[2-(3-chlorophenyl)ethoxy]-3-sulfamoylphenyl}acetamide]
18 | 57 | 3.33 | 61 | 49 | 0.215 | 0.149 | NS(=O)(=O)c1cc(NC(=O)Cc2ccccc2Cl)ccc1OC1CCS(=O)(=O)C1 (centres unmarked) [Example 232, 2-(2-Chlorophenyl)-N-{4-[(1,1-dioxidotetrahydrothiophen-3-yl)oxy]-3-sulfamoylphenyl}acetamide]
19 | 71 | 1.03 | 62 | 67 | 0.01 | 0.04 | NS(=O)(=O)c1cc(NC(=O)Cc2ccccc2Cl)ccc1OCC1CCCC1 [Example 160, 2-(2-Chlorophenyl)-N-[4-(cyclopentylmethoxy)-3-sulfamoylphenyl]acetamide]
